Data reported in US4472435A, “Benzophenone derivatives useful in treating heart failure” (Hoffman-La Roche Inc., priority 1980, dated 1984).

Tests used:
[1] = system: aldosterone; assay: Aldosterone antagonism in adrenalectomised rats (urine volume, sodium and potassium excretion); type: in vivo, Female Holtzmann rats; conditions: for Volume (urine volume), in %, based on control animals / [K+] (potassium excretion), in %, based on control animals / [Na+] (sodium excretion), in %, based on control animals: 30 min before aldosterone s.c., adrenalectomised rats, 3 h urine, control = aldosterone only
Protocol: These aldosterone-antagonistic properties can be dmonstrated in adrenalectomized rats as illustrated hereinafter.
If compounds of formula I are administered to the animals before the treatment with aldosterone, then there is observed, in comparison with the animals which are treated only with aldosterone (control animals), a pronounced increase of the sodium excretion (i.e. the sodium retention caused by aldosterone is antagonised), whereas the potassium excretion and the urine volume are influenced to a lesser extent.
The standard experiment is carried out as follows:
Female Holtzmann rats (150-180 g) are bilaterally adrenalectomised 70 to 74 hours before the beginning of the experiment. After the operation, the animals receive a customary rat dry feed and 0.9% sodium chloride solution for drinking. 16-17 hours before the beginning of the experiment the feed is removed from the animals, but they can subsequently drink, as before, 0.9% sodium chloride solution ad libitum. At the beginning of the experiment the substance to be tested as an aldosterone-antagonist is administered to the animals by means of a stomach probe. 30 minutes later the animals receive a subcutaneous injection of […] of aldosterone. After a further 90 minutes, the urinary bladders of the animals are emptied by careful suprapubic pressure, whereupon the animals are placed individually in metabolic cages without food and without drink. The urine of the animals is then collected for 3 hours, whereupon their urinary bladders are once more emptied. The spontaneously excreted urine and the remaining urine obtained at the conclusion of the experiment by pressing-out the urinary bladders are collected in graduated centrifuge glasses. Sodium and potassium concentrations in the urine are determined with a flame photometer.
(§1) The following Table contains results obtained in the previously described experiment with representative compounds of general formula I. In this Table there are given for each of the compounds figuring therein the dosage administered (in mg/kg p.o.) as well as the percentage variation in the urine volume, the sodium excretion and the potassium excretion in comparison with the control animals (i.e. in comparison with the animals treated only with aldosterone). Moreover, the Table contains data concerning the acute toxicity of the compounds investigated (LD 50 in mg/kg in the case of single oral administration to mice).

[2] = Acute toxicity, single oral administration; conditions: mouse, in vivo, mice
Source text: as §1

[3] = aldosterone in adrenalectomised rats, compared to untreated animals

NCC(=O)Nc1ccc([N+](=O)[O-])cc1C(=NO)c1ccccc1 [H, COCH2 NH2, OH, H, NO2, 2-amino-2'-[α-(hydroxyimino)-benzyl]-4'-nitro-acetanilide]
Volume (urine volume), in %, based on control animals ([1]; 0.1 mg/kg p.o.): 152%
[K+] (potassium excretion), in %, based on control animals ([1]; 0.1 mg/kg p.o.): 97%
[Na+] (sodium excretion), in %, based on control animals ([1]; 0.1 mg/kg p.o.): 230%
LD50 [2]: > 5000 mg/kg

NCC(=O)Nc1ccc([N+](=O)[O-])cc1C(=NO)c1ccccc1Cl [H, COCH2 NH2, OH, Cl, NO2, 2-amino-2'-[o-chloro-α-(hydroxyimino)-benzyl]-4'-nitro-acetanilide]
Volume (urine volume), in %, based on control animals ([1]; 0.1 mg/kg p.o.): 114%
[K+] (potassium excretion), in %, based on control animals ([1]; 0.1 mg/kg p.o.): 99%
[Na+] (sodium excretion), in %, based on control animals ([1]; 0.1 mg/kg p.o.): 211%
LD50 [2]: > 5000 mg/kg

CC(=NO)c1ccc(NC(=O)CN)c(C(=NO)c2ccccc2F)c1 [H, COCH2 NH2, OH, F, drawing 7, 2-amino-2'-[o-fluoro-α-(hydroxyimino)benzyl]-4'-[1-(hydroxyimino)ethyl]acetanilide]
Volume (urine volume), in %, based on control animals ([1]; 0.01 mg/kg p.o.): 161%
[K+] (potassium excretion), in %, based on control animals ([1]; 0.01 mg/kg p.o.): 86%
[Na+] (sodium excretion), in %, based on control animals ([1]; 0.01 mg/kg p.o.): 215%
Volume (urine volume), in %, based on control animals ([1]; 1 mg/kg p.o.): 156%
[K+] (potassium excretion), in %, based on control animals ([1]; 1 mg/kg p.o.): 102%
[Na+] (sodium excretion), in %, based on control animals ([1]; 1 mg/kg p.o.): 327%
LD50 [2]: > 5000 mg/kg

C[C@]12CCC(=O)C=C1CC[C@@H]1[C@@H]2[C@@H](O)C[C@]2(C=O)[C@@H](C(=O)CO)CC[C@@H]12 [aldosterone, reference compound]
potassium excretion after aldosterone (in words) [1, 3]: increased potassium excretion
sodium excretion after aldosterone (in words) [1, 3]: pronounced reduction of the sodium excretion
urine volume after aldosterone (in words) [1, 3]: reduction of the excreted urine volume

CN(C(=O)CN)c1ccc(N)cc1C(=NO)c1ccccc1Cl [CH3, COCH2 NH2, OH, Cl, NH2, 2,4'-diamino-2'-[o-chloro-α-(hydroxyimino)benzyl]-N-methylacetanilide]
Volume (urine volume), in %, based on control animals ([1]; 1 mg/kg p.o.): 155%
[K+] (potassium excretion), in %, based on control animals ([1]; 1 mg/kg p.o.): 94%
[Na+] (sodium excretion), in %, based on control animals ([1]; 1 mg/kg p.o.): 254%
LD50 [2]: > 5000 mg/kg
